ChEMBL document CHEMBL5634077, “Recent advances in 1,2,3- and 1,2,4-triazole hybrids as antimicrobials and their SAR: A critical review” (2023)
In brackets after ≈: the same amount, converted by molar mass.

How the values were obtained:
Candida albicans [1] = test: Antifungal activity against Candida albicans ATCC 90028 assessed as growth inhibition incubated for 24 hrs; format: functional
Staphylococcus aureus [2] = test: Antibacterial activity against Staphylococcus aureus assessed as inhibition of bacterial growth; format: functional
Escherichia coli [3] = test: Antibacterial activity against Escherichia coli assessed as inhibition of bacterial growth; format: functional
Klebsiella pneumoniae [4] = test: Antibacterial activity against Klebsiella pneumoniae assessed as inhibition of bacterial growth; format: functional
Candida albicans [5] = test: Antifungal activity against Candida albicans assessed as inhibition of fungal growth; format: functional
Aspergillus flavus [6] = test: Antifungal activity against Aspergillus flavus assessed as inhibition of fungal growth; format: functional
Rhizopus = test: Antifungal activity against Rhizopus assessed as inhibition of fungal growth; format: functional
Pseudomonas aeruginosa [7] = test: Antibacterial activity against Pseudomonas aeruginosa MTCC 1034 assessed as reduction in bacterial growth; format: functional
Bacillus subtilis [8] = test: Antibacterial activity against Bacillus subtilis MTCC 441 assessed as reduction in bacterial growth; format: functional
Escherichia coli [9] = test: Antibacterial activity against Escherichia coli ATCC 8739 assessed as reduction in bacterial growth by micro-broth dilution method; format: functional
Pseudomonas aeruginosa [10] = test: Antibacterial activity against Pseudomonas aeruginosa MCCB 0035 assessed as reduction in bacterial growth by micro-broth dilution method; format: functional
Staphylococcus aureus [11] = test: Antibacterial activity against Staphylococcus aureus ATCC 29213 assessed as reduction in bacterial growth by micro-broth dilution method; format: functional
Aspergillus fumigatus = test: […] activity against Aspergillus fumigatus NCIM 2081 assessed as reduction in […] by micro-broth dilution method; format: functional
Aspergillus niger [12] = test: […] activity against Aspergillus niger NCIM 2191 assessed as reduction in […] by micro-broth dilution method; format: functional
Candida albicans [13] = test: Antifungal activity against Candida albicans NCIM 2087 assessed as fungal growth inhibition; format: functional
Staphylococcus aureus [14] = test: Antibacterial activity against methicillin resistant Staphylococcus aureus incubated for 20 hrs by broth microdilution method; format: functional
Staphylococcus aureus [15] = test: Antibacterial activity against Staphylococcus aureus assessed as diameter of inhibition zone; format: functional
Bacillus subtilis [16] = test: Antibacterial activity against Bacillus subtilis ATCC 6633 assessed as reduction in microbial growth; format: functional
Micrococcus luteus = test: Antibacterial activity against Micrococcus luteus IFC 12708 assessed as reduction in microbial growth; format: functional
Staphylococcus aureus [17] = test: Antibacterial activity against Staphylococcus aureus ATCC 6538p assessed as reduction in microbial growth; format: functional
Proteus vulgaris = test: Antibacterial activity against Proteus vulgaris ATCC 3851 assessed as reduction in microbial growth; format: functional
Salmonella typhimurium = test: Antibacterial activity against Salmonella typhimurium SL1344 assessed as reduction in microbial growth; format: functional, Salmonella enterica subsp. enterica serovar Typhimurium; conditions: Salmonella enterica
Escherichia coli [18] = test: Antibacterial activity against Escherichia coli ATCC 25922 assessed as reduction in microbial growth; format: functional
Staphylococcus aureus [19] = test: Antibacterial activity against Staphylococcus aureus; format: functional
Bacillus subtilis [20] = test: Antibacterial activity against Bacillus subtilis assessed as reduction in bacterial growth; format: functional
Escherichia coli [21] = test: Antibacterial activity against Escherichia coli assessed as reduction in bacterial growth; format: functional
Aspergillus niger [22] = test: Antifungal activity against Aspergillus niger assessed as fungal growth inhibition; format: functional
Candida albicans [23] = test: Antifungal activity against Candida albicans assessed as fungal growth inhibition by CLSI based method; format: functional
Cryptococcus neoformans = test: Antifungal activity against Cryptococcus neoformans assessed as fungal growth inhibition by CLSI based method; format: functional
Staphylococcus aureus [24] = test: Antimicrobial activity against Staphylococcus aureus assessed as diameter of inhibition zone incubated for 24 hrs by disc-diffusion method; format: functional
Escherichia coli [25] = test: Antimicrobial activity against Escherichia coli assessed as diameter of inhibition zone incubated for 24 hrs by disc-diffusion method; format: functional
Klebsiella pneumoniae [26] = test: Antimicrobial activity against Klebsiella pneumoniae assessed as diameter of inhibition zone incubated for 24 hrs by disc-diffusion method; format: functional
Candida albicans [27] = test: Antimicrobial activity against Candida albicans assessed as diameter of inhibition zone incubated for 24 hrs by disc-diffusion method; format: functional
Candida albicans [28] = test: Antifungal activity against Candida albicans assessed as diameter of inhibition zone at 50 to 100 ug/ml by disc-diffusion method; format: functional; conditions: dose 50-100 µg/ml
Aspergillus flavus [29] = test: Antifungal activity against Aspergillus flavus assessed as diameter of inhibition zone at 50 to 100 ug/ml by disc-diffusion method; format: functional; conditions: dose 50-100 µg/ml

`[N-]=[N+]=Nc1ccc(-n2cc(Cn3c(=O)sc4cc(Br)ccc43)nn2)c(Cl)c1` was tested, and the “growth inhibition (GI)” value (Candida albicans [1]) was 63.7%.

In the case of `COc1cc(N2CCC(c3n[nH]c(=S)n3-c3cccc(C(F)(F)F)c3)CC2)ccc1Cl`, the MIC (Staphylococcus aureus [2]) is reported as 4 µg/mL (≈ 8.53 µM), the MIC (Escherichia coli [3]) is reported as 4 µg/mL (≈ 8.53 µM) and the MIC (Klebsiella pneumoniae [4]) is reported as 8 µg/mL (≈ 17.1 µM). The MIC (Candida albicans [5]) was 8 µg/mL (≈ 17.1 µM), the MIC (Aspergillus flavus [6]) was 4 µg/mL (≈ 8.53 µM) and the MIC (Rhizopus) was 8 µg/mL (≈ 17.1 µM).

Compound `C=CCCC1CC(=O)N1Cc1cn(-c2ccc(OC)cc2)nn1` (stereo not drawn) has an MIC (Pseudomonas aeruginosa [7]) of 1.25 µg/mL (≈ 4 µM) and an MIC (Bacillus subtilis [8]) of 1.25 µg/mL (≈ 4 µM).

`COc1cc(N2CCC(c3n[nH]c(=S)n3-c3ccc(Cl)cc3)CC2)ccc1Cl` showed an MIC (Staphylococcus aureus [2]) of 8 µg/mL (≈ 18.4 µM), an MIC (Escherichia coli [3]) of 4 µg/mL (≈ 9.19 µM) and an MIC (Klebsiella pneumoniae [4]) of 8 µg/mL (≈ 18.4 µM). It also gave an MIC (Candida albicans [5]) of 4 µg/mL (≈ 9.19 µM), an MIC (Aspergillus flavus [6]) of 8 µg/mL (≈ 18.4 µM) and an MIC (Rhizopus) of 8 µg/mL (≈ 18.4 µM).

`O=c1cc(-c2ccccc2)c2cc(F)ccc2n1Cc1nnc2n1N=C(c1ccccc1)CS2` showed an MIC (Escherichia coli [9]) of 8 µg/mL (≈ 17.1 µM), an MIC (Pseudomonas aeruginosa [10]) of 8 µg/mL (≈ 17.1 µM) and an MIC (Staphylococcus aureus [11]) of 2 µg/mL (≈ 4.28 µM). The MIC (Aspergillus fumigatus) was 4 µg/mL (≈ 8.56 µM), the MIC (Aspergillus niger [12]) was 4 µg/mL (≈ 8.56 µM) and the MIC (Candida albicans [13]) was 2 µg/mL (≈ 4.28 µM).

`COc1cc(/C=C/c2ccc(OCc3cn(CCC(=O)O)nn3)cc2)cc(OC)c1` was tested, and the MIC (Staphylococcus aureus [14]) was 625 µg/mL (≈ 1530 µM).

In the case of `CCCCC(=O)c1cc(C(=O)CCCC)cc(-n2cc(C(C)N3C(=O)C(=O)c4ccccc43)nn2)c1` (stereo not drawn), the “diameter of the inhibition zone (DIZ)” value (Staphylococcus aureus [15]) is reported as 6 mm.

With `CCCNC(=O)c1nnn(-c2ccc(CC)cc2)c1C` the “growth inhibition (GI)” value (Candida albicans [1]) was 14.1%.

`COc1cc(N2CCC(c3n[nH]c(=S)n3-c3cc(Cl)cc(Cl)c3)CC2)ccc1Cl` was tested, and the MIC (Staphylococcus aureus [2]) was 16 µg/mL (≈ 34.1 µM), the MIC (Escherichia coli [3]) was 8 µg/mL (≈ 17 µM) and the MIC (Klebsiella pneumoniae [4]) was 8 µg/mL (≈ 17 µM). The MIC (Candida albicans [5]) was 16 µg/mL (≈ 34.1 µM), the MIC (Aspergillus flavus [6]) was 32 µg/mL (≈ 68.1 µM) and the MIC (Rhizopus) was 32 µg/mL (≈ 68.1 µM).

`Cc1c(-c2nn(-c3ccccc3)cc2C2SCC(=O)N2c2ccc(F)cc2)nnn1-c1ccccc1` (stereo not drawn) gave an MIC (Bacillus subtilis [16]) of 1.56 µg/mL, an MIC (Micrococcus luteus) of 1.56 µg/mL and an MIC (Staphylococcus aureus [17]) of 1.56 µg/mL. The MIC (Proteus vulgaris) was 1.56 µg/mL, the MIC (Salmonella typhimurium) was 1.56 µg/mL and the MIC (Escherichia coli [18]) was 1.56 µg/mL.

`Cc1ccc(NC(=O)Cn2cc(COc3ccc(C(=O)/C=C/c4ccccc4)cc3)nn2)cc1` was tested, and the MIC (Staphylococcus aureus [19]) was 13 µM (≈ 5.88 µg/mL) and the MIC (Bacillus subtilis [20]) was 13 µM (≈ 5.88 µg/mL).

In the case of `COc1ccc(NC(=O)NCc2cn(CC(=O)Nc3ccc(C(F)(F)F)cc3)nn2)cc1`, the MIC (Staphylococcus aureus [19]) is reported as 27 µM (≈ 12.1 µg/mL).

`O=C(Cn1cc(COc2ccc(C(=O)/C=C/c3ccccc3)cc2)nn1)Nc1ccc([N+](=O)[O-])cc1` showed an MIC (Escherichia coli [21]) of 12 µM (≈ 5.8 µg/mL) and an MIC (Aspergillus niger [22]) of 12 µM (≈ 5.8 µg/mL).

Compound `C=CCCC1CC(=O)N1Cc1cn(-c2cccc(Cl)c2)nn1` (stereo not drawn) has an MIC (Pseudomonas aeruginosa [7]) of 1.25 µg/mL (≈ 3.95 µM) and an MIC (Bacillus subtilis [8]) of 1.25 µg/mL (≈ 3.95 µM).

For `C=CCCC1CC(=O)N1Cc1cn(-c2ccc([N+](=O)[O-])cc2)nn1` (stereo not drawn), the MIC (Pseudomonas aeruginosa [7]) was 1.25 µg/mL (≈ 3.82 µM) and the MIC (Bacillus subtilis [8]) was 1.25 µg/mL (≈ 3.82 µM).

Compound `O=C(c1ccc(F)cc1)C(Cc1ccccc1)n1cncn1` (stereo not drawn) has an MIC (Candida albicans [23]) of 0.5 µg/mL (≈ 1.69 µM) and an MIC (Cryptococcus neoformans) of 0.5 µg/mL (≈ 1.69 µM).

Compound `O=C(c1ccc(Cl)cc1)C(Cc1ccccc1)n1cncn1` (stereo not drawn) has an MIC (Candida albicans [23]) of 0.5 µg/mL (≈ 1.6 µM) and an MIC (Cryptococcus neoformans) of 0.5 µg/mL (≈ 1.6 µM).

With `COCCOCCOCCOCCOC(=O)c1cc(C(=O)OCCOCCOCCOC)cc(-n2cc(CN3C(=O)C(=O)c4ccccc43)nn2)c1` the “diameter of the inhibition zone (DIZ)” value (Staphylococcus aureus [15]) was 12 mm.

`CC(c1cn(-c2cnc(-c3ccccc3)c(-c3ccccc3)n2)nn1)N1C(=O)C(=O)c2ccccc21` (stereo not drawn) was tested, and the “diameter of the inhibition zone (DIZ)” value (Staphylococcus aureus [15]) was 6 mm.

With `COc1cc(/C=N/n2c(-c3ccc(Cl)cc3Cl)n[nH]c2=S)ccc1O` the “diameter of the inhibition zone (DIZ)” value (Staphylococcus aureus [24]) was 3 mm, the “diameter of the inhibition zone (DIZ)” value (Escherichia coli [25]) was 3 mm and the “diameter of the inhibition zone (DIZ)” value (Klebsiella pneumoniae [26]) was 3 mm. The “diameter of the inhibition zone (DIZ)” value (Candida albicans [27]) was 3 mm.

Compound `COc1cc(/C=C/c2ccc(OCc3cn(CCCCC(=O)O)nn3)cc2)cc(OC)c1` has an MIC (Staphylococcus aureus [14]) of 78.1 µg/mL (≈ 179 µM).

In the case of `COc1cc([N+](=O)[O-])c(OC)cc1-n1cc(C(C)N2C(=O)C(=O)c3ccccc32)nn1` (stereo not drawn), the “diameter of the inhibition zone (DIZ)” value (Staphylococcus aureus [15]) is reported as 9 mm.

Work on `COc1cc(N2CCC(c3n[nH]c(=S)n3-c3cccc(Cl)c3)CC2)ccc1Cl` yielded an MIC (Staphylococcus aureus [2]) of 4 µg/mL (≈ 9.19 µM), an MIC (Escherichia coli [3]) of 8 µg/mL (≈ 18.4 µM) and an MIC (Klebsiella pneumoniae [4]) of 4 µg/mL (≈ 9.19 µM). It also gave an MIC (Candida albicans [5]) of 8 µg/mL (≈ 18.4 µM), an MIC (Aspergillus flavus [6]) of 4 µg/mL (≈ 9.19 µM) and an MIC (Rhizopus) of 8 µg/mL (≈ 18.4 µM).

Compound `C[C@@H]1[C@H](O)[C@@H](C)/C=C/C=C/C=C/C=C/C=C/C=C/C=C/[C@H](O[C@@H]2O[C@H](C)[C@@H](O)[C@H](N)[C@@H]2O)C[C@@H]2O[C@](O)(C[C@@H](O)C[C@@H](O)[C@H](O)CC[C@@H](O)C[C@@H](O)CC(=O)O[C@H]1C)C[C@H](O)[C@H]2C(=O)O` [AMPHOTERICIN B] has an MIC (Candida albicans [5]) of 8 µg/mL (≈ 8.66 µM), an MIC (Aspergillus flavus [6]) of 8 µg/mL (≈ 8.66 µM) and an MIC (Rhizopus) of 16 µg/mL (≈ 17.3 µM).

For `CC(=O)N1CCN(c2ccc(OCC3COC(Cn4ccnc4)(c4ccc(Cl)cc4Cl)O3)cc2)CC1` (stereo not drawn) [KETOCONAZOLE], the “diameter of the inhibition zone (DIZ)” value (Candida albicans [28]) was 14 mm and the “diameter of the inhibition zone (DIZ)” value (Aspergillus flavus [29]) was 14 mm.
